Measurements from patent publication US11458106B2, “Lipid nanoparticles comprising lipophilic anti-inflammatory agents and methods of use thereof” (ASTRAZENECA AB, priority 2016, dated 2022).

Key:
KC = experiment: Quantification of cytokines/chemokines in plasma: KC; format: in vivo, mice; details: Example 10; pro-drug in L608 (Merck-32) LNPs, s.c. 0.3 mg mRNA/kg, 7 and 24 hours; vs. Sample S26
Procedure: (§1) Different groups of 5 mice (female, age˜12 weeks, Crl:Cd1(ICR), Charles River) were administered with PBS (negative control) or mRNA 1 formulated in lipid nanoparticles. Prior to administration, the mice were lightly anaesthetized with Isoflurane 5% and the injection area was shaved. The formulations were then injected subcutaneously (5 ml/kg or 0.3 mg mRNA/kg) in the intrascapular region to different groups of mice. Post-dose blood samples were collected and plasma was prepared by centrifugation. Aliquots of plasma were transferred into cryo tubes (0.5 ml U-shaped polypropylene cryotubes (Sarstedt Microtube with cap Ref #72.730) and stored frozen until quantification of haptoglobin, cytokines/chemokines and mRNA 1 protein concentrations. In some studies, quantification was also carried out of lipophilic anti-inflammatory agent in plasma samples. At 24 hours after administration, clinical signs of inflammatory response was evaluated by gently pressing the finger over the injection area to determine edema and judged by visual inspection as edema or no edema in the different mice. The number of mice displaying visible signs of edema per group (each group having 5 mice) was summed to give an edema score of 0-5. Plasma concentrations of murine cytokines/chemokines were measured by EMD Millipore's MILLIPLEX® MAP Mouse Cytokine magnetic bead kit (Merck KGaA, Darmstadt, Germany) for the simultaneous quantification of cytokines; IL-6, KC, MCP-1 and IP-10. The samples were first diluted 1:2 with Assay buffer then, together with standard's and QC's placed in a 96 well plate. A solution containing beads were added. The beads are magnetic microspheres each of which is coated with a specific antibody. The mixture was incubated over night at 4° C. and the reaction mixture was then incubated with Streptavidin-PE conjungate to complete the reaction on the surface of each microsphere. The plate was read on analyzer Luminex® 100. Each individual microsphere was identified and the result of its bioassay quantified based on fluorescent reporter signals. The concentration was measured using Median Fluorescent Intensity (MFI) data using a 5-parameter logistic curve-fitting method.

haptoglobin = experiment: Quantification of haptoglobin in plasma; format: in vivo, mice; details: 24 h; for haptoglobin in plasma: s.c. 0.3 mg mRNA/kg
Procedure: (§2) Different groups of 5 mice (female, age˜12 weeks, Crl:Cd1(ICR), Charles River) were administered with PBS (negative control) or mRNA 1 formulated in lipid nanoparticles. Prior to administration, the mice were lightly anaesthetized with Isoflurane 5% and the injection area was shaved. The formulations were then injected subcutaneously (5 ml/kg or 0.3 mg mRNA/kg) in the intrascapular region to different groups of mice. Post-dose blood samples were collected and plasma was prepared by centrifugation. Aliquots of plasma were transferred into cryo tubes (0.5 ml U-shaped polypropylene cryotubes (Sarstedt Microtube with cap Ref #72.730) and stored frozen until quantification of haptoglobin, cytokines/chemokines and mRNA 1 protein concentrations. In some studies, quantification was also carried out of lipophilic anti-inflammatory agent in plasma samples. At 24 hours after administration, clinical signs of inflammatory response was evaluated by gently pressing the finger over the injection area to determine edema and judged by visual inspection as edema or no edema in the different mice. The number of mice displaying visible signs of edema per group (each group having 5 mice) was summed to give an edema score of 0-5.
Plasma concentrations of haptoglobin were measured by EMD Millipore's MILLIPLEX® MAP Mouse Acute Phase panel 2 kit (Merck KGaA, Darmstadt, Germany). The sample was first diluted 1:20 000 with Assay buffer then, together with standard's and QC's placed in a 96 well plate. A solution containing beads were then added. The beads were magnetic microspheres each of which was coated with a specific antibody. The mixture was incubated over night at 4° C. and the reaction mixture was then incubated with Streptavidin-PE conjungate to complete the reaction on the surface of each microsphere. The plate was read on analyzer Luminex® 100. Each individual microsphere was identified and the result of its bioassay quantified based on fluorescent reporter signals. The concentration was measured using Median Fluorescent Intensity (MFI) data using a 5-parameter logistic curve-fitting method.

[1] = test system: mice (female, Crl:Cd1(ICR)); experiment: Edema scoring at injection area after subcutaneous administration; format: in vivo
Procedure: as §2

IL-6 = experiment: Quantification of cytokines/chemokines in plasma: IL-6; format: in vivo, mice; details: Example 10; pro-drug in L608 (Merck-32) LNPs, s.c. 0.3 mg mRNA/kg, 7 and 24 hours; vs. Sample S26
Procedure: as §1

mRNA 1 protein = experiment: Quantification of mRNA 1 protein in plasma; format: in vivo, mice; details: s.c. 0.3 mg mRNA/kg; for expression of mRNA 1 (plasma): Example 10, pro-drug in L608 (Merck-32) LNPs, vs. conventional LNPs (Sample S26); for protein expression (plasma mRNA 1 protein): Example 6, pro-drug in DLin-MC3-DMA LNPs, 0-24 h, vs. non-anti-inflammatory LNPs
Procedure: as §2
mRNA 1 protein was measured as a single analyte with the Milliplex Human Liver Protein Magnetic beads [Merck Millipore, Darmstadt, Germany]. The assay was performed using the Bioplex Multiplex Suspension Array System, Luminex 100TM] and Bioplex Manager 6.1 software curve fitting software [Bio-Rad Laboratories, Hercules, Calif.]. Briefly, the assay was performed according to a modified protocol based upon the manufacturers' instruction, with additional calibration points to extend the lower range of the standard curve. Sample data was back calculated from the standard curve (5PL curve fitting).

[2] = Example 10, pro-drug in L608 (Merck-32) LNPs, vs. conventional LNPs (Sample S26)
[3] = Example 10, pro-drug in L608 (Merck-32) LNPs, s.c. 0.3 mg mRNA/kg, vs. conventional LNPs (Sample S26)
[4] = Example 6, pro-drug in DLin-MC3-DMA LNPs, vs. non-anti-inflammatory LNPs
[5] = Example 7, in both DLin-MC3-DMA or Merck-32 based LNPs
[6] = Example 6, pro-drug in DLin-MC3-DMA LNPs with mRNA 1, s.c. 0.3 mg mRNA/kg, vs. non-anti-inflammatory LNPs
[7] = Example 9, in both Acuitas-5 and KL10 based LNPs, s.c. 0.3 mg/kg, compared to LNPs based on DLin-MC3-DMA

Row | Compound | plasma KC (KC) | haptoglobin in plasma (haptoglobin; [2]) | inflammation measured as edema scoring [1, 3] | plasma IL-6 (IL-6) | expression of mRNA 1 (plasma) (mRNA 1 protein) | haptoglobin in plasma (haptoglobin; [4]) | haptoglobin in plasma (haptoglobin; [5]) | inflammation measured as edema scoring [1, 6] | inflammation measured as edema scoring ([1]; Example 7, in both DLin-MC3-DMA or Merck-32 based LNPs, s.c. 0.3 mg mRNA/kg, 24 h, vs same LNPs without) | protein expression (plasma mRNA 1 protein) (mRNA 1 protein) | expression of mRNA 1 protein (mRNA 1 protein; [5]) | plasma haptoglobin (haptoglobin; [7]) | inflammation measured as edema scoring [1, 7] | mRNA 1 protein expression (mRNA 1 protein; Example 9, time interval 0-24 h, Acuitas-5 and KL10 LNPs with vs without rofleponide myristate)
1 | CCCCCCCC/C=C\CCCCCCCC(=O)OCC(=O)[C@@]12OC(CCC)O[C@@H]1C[C@H]1[C@@H]3CCC4=CC(=O)C=C[C@]4(C)[C@H]3[C@@H](O)C[C@@]12C (stereo partly shown) [B-C18:1, budesonide oleate] | significantly reduce | significantly reduce | significantly reduce | significantly reduce | increased and prolonged expression of mRNA 1 |  |  |  |  |  |  |  |  | 
2 | CCCCCCCCCCCCCCCC(=O)OCC(=O)C12OC(CCC)OC1CC1C3CC(F)C4=CC(=O)CCC4(C)C3(F)C(O)CC12C (stereo not shown) [R-C16, rofleponide palmitate] |  |  |  |  |  | significantly reduced | significantly reduced | significantly reduced | significantly reduced | increased and prolonged protein expression | increased expression of mRNA 1 protein |  |  | 
3 | CCCCCCCCCCCCCC(=O)OCC(=O)[C@@]12OC(CCC)O[C@@H]1C[C@H]1[C@@H]3CCC4=CC(=O)C=C[C@]4(C)[C@H]3[C@@H](O)C[C@@]12C (stereo partly shown) [B-C14, budesonide myristate] | not influenced to the same extent | not influenced to the same extent | not influenced to the same extent | not influenced to the same extent |  |  |  |  |  |  |  |  |  | 
4 | CCCCC(=O)OCC(=O)[C@@]12O[C@H](CCC)O[C@@H]1C[C@H]1[C@@H]3C[C@H](F)C4=CC(=O)CC[C@]4(C)[C@@]3(F)[C@@H](O)C[C@@]12C [R-C5, rofleponide valerate] |  |  |  |  |  | not significantly influenced |  | not significantly influenced |  | did not produce a significantly increased total protein expression |  |  |  | 
5 | CCCCCCCCCCCCCC(=O)OCC(=O)C12OC(CCC)OC1CC1C3CC(F)C4=CC(=O)CCC4(C)C3(F)C(O)CC12C (stereo not shown) [R-C14, rofleponide myristate] | significantly reduce | significantly reduce | significantly reduce | significantly reduce | increased and prolonged expression of mRNA 1 | significantly reduced |  | significantly reduced |  | increased and prolonged protein expression |  | reduced | reduced | increased
6 | CCCCCCCCCCCCCCCCCC(=O)OCC(=O)[C@@]12O[C@H](CCC)O[C@@H]1C[C@H]1[C@@H]3C[C@H](F)C4=CC(=O)CC[C@]4(C)[C@@]3(F)[C@@H](O)C[C@@]12C [R-C18, rofleponide stearate] |  |  |  |  |  | significantly reduced |  | significantly reduced |  | increased and prolonged protein expression |  |  |  | 
7 | CCCCCCCCCCCCCCCC(=O)OCC(=O)[C@@]12OC(CCC)O[C@@H]1C[C@H]1[C@@H]3CCC4=CC(=O)C=C[C@]4(C)[C@H]3[C@@H](O)C[C@@]12C (stereo partly shown) [B-C16, budesonide palmitate] | significantly reduce | significantly reduce | significantly reduce | significantly reduce | increased and prolonged expression of mRNA 1 |  |  |  |  |  |  |  |  | 
